From PMC2798597 (Biochemical pharmacology, 2009)

What was measured:
S1-M1-80 (ABCG2) = test: MTT cytotoxicity / MDR reversal; type: cell-based; details: S1-M1-80 cells; +5 µM FG020326
[1] = system: the entire cell lines tested; test: MTT cytotoxicity of FG020326 alone; type: cell-based
KB cells [2] = test: ABCB1 function analysis, Rho 123 retention; type: cell-based, human; details: drug sensitive KB cells
KB-CV60 (ABCC1) = test: MTT cytotoxicity / MDR reversal; type: cell-based, human; details: KB-CV60 cells; +5 µM FG020326
KB cells [3] = test: Intracellular Dox accumulation; type: cell-based, human; details: drug sensitive KB cells; 0.625-10 µM
KBv200 cell xenografts = test: MDR human carcinoma xenograft model; type: in vivo, athymic nude mice
S1 = test: MTT cytotoxicity / MDR reversal; type: cell-based; details: S1 cells; +5 µM FG020326
ABCB1 = ABCB1 (Homo sapiens, UniProt P08183); type: biochemical; details: read-out: IC50, inhibition of ABCB1 ATPase activity; Vi-sensitive ATPase; membrane vesicles of High Five insect cells
KB cells [4] = test: Dox efflux; type: cell-based, human; details: 5 µM FG020326
KB-3-1 = test: MTT cytotoxicity / MDR reversal; type: cell-based, human; details: KB-3-1 cells; +5 µM FG020326
MCF-7/adr (ABCB1) = test: MTT cytotoxicity / MDR reversal; type: cell-based, human; details: MCF-7/adr cells
KB = test: MTT cytotoxicity / MDR reversal; type: cell-based, human; details: KB cells
KBv200 (ABCB1) = test: MTT cytotoxicity / MDR reversal; type: cell-based, human; details: KBv200 cells
SW1573/2R120 (LRP) = test: MTT cytotoxicity / MDR reversal; type: cell-based, human; details: SW1573/2R120 cells; +5 µM FG020326
MCF-7 = test: MTT cytotoxicity / MDR reversal; type: cell-based, human; details: MCF-7 cells
[5] = system: ABCB1 expression in KBv200 cells; details: 48 h, Western blot
KBv200 cells [6] = test: Intracellular Dox accumulation; type: cell-based, human
NIH3T3 = test: MTT cytotoxicity / MDR reversal; type: cell-based, murine; details: NIH3T3 cells; +5 µM FG020326
[7] = FG020326 plasma levels in mice; type: in vivo; details: NIH mice, 100 mg/kg p.o.; for plasma concentration at 8 h: 8 h after administration
KBv200 cells [8] = test: Dox efflux; type: cell-based, human; details: 5 µM FG020326
SW1573 = test: MTT cytotoxicity / MDR reversal; type: cell-based, human; details: SW1573 cells; +5 µM FG020326
NIH3T3/MRP-4-2 (ABCC4) = test: MTT cytotoxicity / MDR reversal; type: cell-based, murine; details: NIH3T3/MRP-4-2 cells; +5 µM FG020326
[9] = VCR experiment, VCR 0.2 mg/kg i.p. q2d×6, FG020326 100 mg/kg p.o. q2d×6
[10] = paclitaxel experiment, paclitaxel 18 mg/kg i.p. q5d×3, FG020326 100 mg/kg p.o.

ABCB1, sequence (P08183 whole entry): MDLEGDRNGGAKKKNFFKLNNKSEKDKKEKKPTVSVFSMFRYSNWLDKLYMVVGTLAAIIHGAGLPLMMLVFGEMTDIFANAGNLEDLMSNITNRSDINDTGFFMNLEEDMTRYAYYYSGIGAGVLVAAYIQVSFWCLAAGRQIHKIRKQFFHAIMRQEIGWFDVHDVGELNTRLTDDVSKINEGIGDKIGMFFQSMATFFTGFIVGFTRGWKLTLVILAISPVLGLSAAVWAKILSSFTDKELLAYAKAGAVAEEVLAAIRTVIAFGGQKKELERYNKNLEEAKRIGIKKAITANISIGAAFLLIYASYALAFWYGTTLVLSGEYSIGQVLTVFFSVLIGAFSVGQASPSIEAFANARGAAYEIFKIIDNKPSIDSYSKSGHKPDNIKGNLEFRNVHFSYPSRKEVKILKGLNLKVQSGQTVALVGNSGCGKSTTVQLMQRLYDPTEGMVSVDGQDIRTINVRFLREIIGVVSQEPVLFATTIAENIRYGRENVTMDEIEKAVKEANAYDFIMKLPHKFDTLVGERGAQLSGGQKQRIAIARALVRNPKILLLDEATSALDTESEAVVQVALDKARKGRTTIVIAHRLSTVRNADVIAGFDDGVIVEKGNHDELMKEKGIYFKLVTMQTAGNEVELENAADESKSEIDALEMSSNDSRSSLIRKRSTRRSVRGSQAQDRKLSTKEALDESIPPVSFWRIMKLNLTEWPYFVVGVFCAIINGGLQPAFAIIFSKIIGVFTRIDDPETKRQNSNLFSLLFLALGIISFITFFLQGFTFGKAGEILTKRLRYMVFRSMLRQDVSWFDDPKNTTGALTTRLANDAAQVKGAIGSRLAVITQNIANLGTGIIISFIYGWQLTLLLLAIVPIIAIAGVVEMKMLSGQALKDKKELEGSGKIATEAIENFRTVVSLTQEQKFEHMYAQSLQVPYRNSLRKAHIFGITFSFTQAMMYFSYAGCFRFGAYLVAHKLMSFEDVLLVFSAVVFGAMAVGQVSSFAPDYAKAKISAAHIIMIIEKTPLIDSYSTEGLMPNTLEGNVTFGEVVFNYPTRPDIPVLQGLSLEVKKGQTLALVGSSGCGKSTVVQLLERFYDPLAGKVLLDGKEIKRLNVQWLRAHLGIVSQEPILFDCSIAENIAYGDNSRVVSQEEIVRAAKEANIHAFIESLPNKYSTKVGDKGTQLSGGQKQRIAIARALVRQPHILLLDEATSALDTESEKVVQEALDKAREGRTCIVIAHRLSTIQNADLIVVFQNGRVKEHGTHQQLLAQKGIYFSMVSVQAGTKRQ

COC(=O)/C=C/c1ccc(-c2nc(-c3ccc(N(C)C(C)C)cc3)c(-c3ccc(N(C)C(C)C)cc3)[nH]2)cc1 [FG020326, 2-[(4-Methyl-trans-acrylate)phenyl]-4,5-bis-(4-N, N-methyl-isopropyl-aminophenyl)-1(H)-imidazole]
fold-reversal (topotecan) (S1-M1-80 (ABCG2)): (1.0) fold
Cell survival ([1]; all cell lines, concentrations used to reverse MDR, data not shown): > 90%
IC50 ([1]; read-out: IC50 (cytotoxicity of FG020326 alone), MTT, entire cell lines tested): > 50000 nM
effect on Rho 123 accumulation (KB cells [2]): not significantly altered
fold-reversal (vincristine) (KB-CV60 (ABCC1)): (0.9) fold
effect on intracellular accumulation of Dox (KB cells [3]): did not significantly alter the intracellular accumulation of Dox
Growth Inhibition (KBv200 cell xenografts; [9]): 9.4%
Weight of tumor (KBv200 cell xenografts; [9]): 2.43 ± 0.70 g
Growth Inhibition (KBv200 cell xenografts; [10]): 7.2%
Weight of tumor (KBv200 cell xenografts; [10]): 2.08 ± 1.00 g
fold-reversal (topotecan) (S1): (1.1) fold
IC50 (ABCB1): 2500 nM
effect on efflux of Dox (KB cells [4]): but not the KB cells
fold-reversal (vincristine) (KB-3-1): (0.9) fold
fold-reversal (doxorubicin) (MCF-7/adr (ABCB1); +1.25 µM FG020326): (6.4) fold
fold-reversal (paclitaxel) (MCF-7/adr (ABCB1); +1.25 µM FG020326): (3.5) fold
fold-reversal (vincristine) (MCF-7/adr (ABCB1); +1.25 µM FG020326): (2.3) fold
fold-reversal (doxorubicin) (MCF-7/adr (ABCB1); +2.5 µM FG020326): (9.6) fold
fold-reversal (paclitaxel) (MCF-7/adr (ABCB1); +2.5 µM FG020326): (8.8) fold
fold-reversal (vincristine) (MCF-7/adr (ABCB1); +2.5 µM FG020326): (4.6) fold
fold-reversal (cisplatin) (MCF-7/adr (ABCB1); +5 µM FG020326): (0.9) fold
fold-reversal (doxorubicin) (MCF-7/adr (ABCB1); +5 µM FG020326): (14.3) fold
fold-reversal (paclitaxel) (MCF-7/adr (ABCB1); +5 µM FG020326): (22.0) fold
fold-reversal (vincristine) (MCF-7/adr (ABCB1); +5 µM FG020326): (10.7) fold
fold-reversal (doxorubicin) (KB; +1.25 µM FG020326): (1.0) fold
fold-reversal (paclitaxel) (KB; +1.25 µM FG020326): (1.0) fold
fold-reversal (vincristine) (KB; +1.25 µM FG020326): (1.0) fold
fold-reversal (doxorubicin) (KB; +2.5 µM FG020326): (1.0) fold
fold-reversal (paclitaxel) (KB; +2.5 µM FG020326): (1.0) fold
fold-reversal (vincristine) (KB; +2.5 µM FG020326): (1.0) fold
fold-reversal (5-FU) (KB; +5 µM FG020326): (1.0) fold
fold-reversal (doxorubicin) (KB; +5 µM FG020326): (0.9) fold
fold-reversal (paclitaxel) (KB; +5 µM FG020326): (1.1) fold
fold-reversal (vincristine) (KB; +5 µM FG020326): (1.0) fold
fold-reversal (doxorubicin) (KBv200 (ABCB1); +1.25 µM FG020326): (4.2) fold
fold-reversal (paclitaxel) (KBv200 (ABCB1); +1.25 µM FG020326): (5.0) fold
fold-reversal (vincristine) (KBv200 (ABCB1); +1.25 µM FG020326): (16.7) fold
fold-reversal (doxorubicin) (KBv200 (ABCB1); +2.5 µM FG020326): (8.0) fold
fold-reversal (paclitaxel) (KBv200 (ABCB1); +2.5 µM FG020326): (10.3) fold
fold-reversal (vincristine) (KBv200 (ABCB1); +2.5 µM FG020326): (34.7) fold
fold-reversal (doxorubicin) (KBv200 (ABCB1); +5 µM FG020326): (12.2) fold
fold-reversal (paclitaxel) (KBv200 (ABCB1); +5 µM FG020326): (30.4) fold
fold-reversal (vincristine) (KBv200 (ABCB1); +5 µM FG020326): (57.3) fold
fold-reversal (doxorubicin) (SW1573/2R120 (LRP)): (1.0) fold
fold-reversal (doxorubicin) (MCF-7; +1.25 µM FG020326): (1.0) fold
fold-reversal (paclitaxel) (MCF-7; +1.25 µM FG020326): (1.1) fold
fold-reversal (vincristine) (MCF-7; +1.25 µM FG020326): (0.9) fold
fold-reversal (doxorubicin) (MCF-7; +2.5 µM FG020326): (1.0) fold
fold-reversal (paclitaxel) (MCF-7; +2.5 µM FG020326): (1.0) fold
fold-reversal (vincristine) (MCF-7; +2.5 µM FG020326): (1.0) fold
fold-reversal (cisplatin) (MCF-7; +5 µM FG020326): (0.9) fold
fold-reversal (doxorubicin) (MCF-7; +5 µM FG020326): (0.9) fold
fold-reversal (paclitaxel) (MCF-7; +5 µM FG020326): (1.0) fold
fold-reversal (vincristine) (MCF-7; +5 µM FG020326): (0.9) fold
effect on ABCB1 protein expression level [5]: no marked difference
enhancement of Dox accumulation (KBv200 cells [6]; 0.625 µM FG020326, 10 µM Dox): 1.4 fold
enhancement of Dox accumulation (KBv200 cells [6]; 1.25 µM FG020326, 10 µM Dox): 2.1 fold
enhancement of Dox accumulation (KBv200 cells [6]; 2.5 µM FG020326, 10 µM Dox): 2.6 fold
enhancement of Dox accumulation (KBv200 cells [6]; 5 µM FG020326, 10 µM Dox): 3.0 fold
enhancement of Dox accumulation (KBv200 cells [6]; 10 µM FG020326, 10 µM Dox): 3.7 fold
fold-reversal (vincristine) (NIH3T3): (0.9) fold
peak plasma concentration ([7]; 100 mg/kg): about 5.3 µM
plasma concentration at 8 h ([7]; 100 mg/kg): not less than 1.24 µM
plasma concentration at 8 h ([7]; listed as FG020236, 100 mg/kg): > 1240 nM
plasma concentration at 12 h ([7]; 12 h after administration): 920 nM
peak plasma concentration ([7]; listed as FG020236, 100 mg/kg): 5.3 µM
effect on efflux of Dox (KBv200 cells [8]): significantly inhibited the efflux of Dox
fold-reversal (doxorubicin) (SW1573): (1.2) fold
fold-reversal (vincristine) (NIH3T3/MRP-4-2 (ABCC4)): (0.9) fold
